# Reference: the supplement of paper PMC10331698
# ± gives the standard deviation of the averaged measurements.
# How the values were obtained:
# Test in all cases: level (log10 ratio to DMSO vehicle control); higher = higher biomarker level / cell amount than vehicle control
# Details in all cases: in DMSO
# [1] = compound: C=C(C)C(=O)OCC(F)(F)C(F)(F)C(F)(F)C(F)(F)C(F)(F)C(F)(F)C(F)(F)F
# Description: (§1)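 BioMAP Diversity Plus panel of 12 human primary cell co-culture systems (3C, 4H, LPS, SAg, BT, BF4T, BE3C, CASM3C, HDF3CGF, KF3CT, MyoF, Mphg). Compounds were added 1 h before stimulation and left for 24 h (MyoF 48 h; BT 72 h for soluble read-outs or 6 d for IgG). Biomarkers were read by ELISA, cytotoxicity by SRB, PBMC viability and proliferation by Alamar Blue. Each well value was divided by the mean of 8 DMSO control wells on the same plate and log10 transformed; duplicate blinded samples were tested at 4 concentrations.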
# [2] = compound: O=S(=O)(O)C(F)(F)C(F)(F)C(F)(F)C(F)(F)C(F)(F)C(F)(F)C(F)(F)C(F)(F)F [Potassium perfluorooctanesulfonate]
# Description: as §1
# [3] = compound: O=P(O)(O)CCC(F)(F)C(F)(F)C(F)(F)C(F)(F)C(F)(F)C(F)(F)C(F)(F)C(F)(F)F [((Perfluorooctyl)ethyl)phosphonic acid]
# Description: as §1
test system,measurement,setting,value
MyoF:CD106/VCAM-1,level (log10),[1]; 6700 nM,0.0035 ± 0.015
same,level (log10),[1]; 20000 nM,0.019 ± 0.0099
same,level (log10),[2]; 6700 nM,0.002 ± 0.027
same,level (log10),[2]; 20000 nM,0.0045 ± 0.029
same,level (log10),[2]; 60000 nM,0.0015 ± 0.019
same,level (log10),[3]; 6700 nM,-0.013 ± 0.027
same,level (log10),[3]; 20000 nM,-0.0105 ± 0.015
same,level (log10),[3]; 60000 nM,-0.079 ± 0.03
lMphg:CXCL8/IL-8,level (log10),[1]; 6700 nM,-0.042 ± 0.021
same,level (log10),[1]; 20000 nM,-0.0315 ± 0.047
same,level (log10),[2]; 6700 nM,-0.0435 ± 0.005
same,level (log10),[2]; 20000 nM,0.0135 ± 0.03
same,level (log10),[2]; 60000 nM,0.094 ± 0.0028
same,level (log10),[3]; 6700 nM,-0.0105 ± 0.025
same,level (log10),[3]; 20000 nM,0.0115 ± 0.028
same,level (log10),[3]; 60000 nM,0.148 ± 0.084
CASM3C:CD87/uPAR,level (log10),[1]; 6700 nM,0.0005 ± 0.0035
same,level (log10),[1]; 20000 nM,0.003 ± 0.023
same,level (log10),[2]; 6700 nM,-0.0025 ± 0.012
same,level (log10),[2]; 20000 nM,-0.016 ± 0.0014
same,level (log10),[2]; 60000 nM,-0.0095 ± 0.011
same,level (log10),[3]; 6700 nM,-0.022 ± 0.013
same,level (log10),[3]; 20000 nM,-0.0345 ± 0.015
same,level (log10),[3]; 60000 nM,-0.041 ± 0.014
CASM3C:CD106/VCAM-1,level (log10),[1]; 6700 nM,0.011 ± 0.0014
same,level (log10),[1]; 20000 nM,-0.0155 ± 0.046
same,level (log10),[2]; 6700 nM,-0.0125 ± 0.019
same,level (log10),[2]; 20000 nM,-0.0175 ± 0.005
same,level (log10),[2]; 60000 nM,-0.104 ± 0.041
same,level (log10),[3]; 6700 nM,-0.0325 ± 0.00071
same,level (log10),[3]; 20000 nM,0 ± 0.0014
same,level (log10),[3]; 60000 nM,0.0335 ± 0.019
lMphg:SRB-Mphg,level (log10),[1]; 6700 nM,0.0095 ± 0.052
same,level (log10),[1]; 20000 nM,0.0365 ± 0.03
same,level (log10),[2]; 6700 nM,0.0005 ± 0.005
same,level (log10),[2]; 20000 nM,0.0005 ± 0.011
same,level (log10),[2]; 60000 nM,0.0115 ± 0.005
same,level (log10),[3]; 6700 nM,0.0005 ± 0.015
same,level (log10),[3]; 20000 nM,-0.0055 ± 0.00071
same,level (log10),[3]; 60000 nM,-0.0515 ± 0.022
lMphg:CCL3/MIP-1alpha,level (log10),[1]; 6700 nM,-0.032 ± 0.0028
same,level (log10),[1]; 20000 nM,0.007 ± 0.045
same,level (log10),[2]; 6700 nM,-0.0105 ± 0.0035
same,level (log10),[2]; 20000 nM,-0.0255 ± 0.0092
same,level (log10),[2]; 60000 nM,-0.016 ± 0.02
same,level (log10),[3]; 6700 nM,-0.0425 ± 0.026
same,level (log10),[3]; 20000 nM,-0.0475 ± 0.0021
same,level (log10),[3]; 60000 nM,-0.039 ± 0.0085
CASM3C:CXCL8/IL-8,level (log10),[1]; 6700 nM,-0.015 ± 0.018
same,level (log10),[1]; 20000 nM,-0.001 ± 0.016
same,level (log10),[2]; 6700 nM,0.001 ± 0.027
same,level (log10),[2]; 20000 nM,0.023 ± 0.018
same,level (log10),[2]; 60000 nM,0.048 ± 0.04
same,level (log10),[3]; 6700 nM,-0.01 ± 0.02
same,level (log10),[3]; 20000 nM,0 ± 0.024
same,level (log10),[3]; 60000 nM,0.023 ± 0.048
MyoF:SRB,level (log10),[1]; 6700 nM,-0.0005 ± 0.0021
same,level (log10),[1]; 20000 nM,-0.0065 ± 0.0064
same,level (log10),[2]; 6700 nM,-0.001 ± 0.011
same,level (log10),[2]; 20000 nM,-0.0085 ± 0.0035
same,level (log10),[2]; 60000 nM,-0.0145 ± 0.016
same,level (log10),[3]; 6700 nM,0.002 ± 0.0042
same,level (log10),[3]; 20000 nM,0.0025 ± 0.0064
same,level (log10),[3]; 60000 nM,0.004
KF3CT:CCL2/MCP-1,level (log10),[1]; 6700 nM,-0.016 ± 0.025
same,level (log10),[1]; 20000 nM,0.0325 ± 0.03
same,level (log10),[2]; 6700 nM,-0.009 ± 0.011
same,level (log10),[2]; 20000 nM,-0.012 ± 0.0014
same,level (log10),[2]; 60000 nM,0.001 ± 0.05
same,level (log10),[3]; 6700 nM,-0.0355 ± 0.0064
same,level (log10),[3]; 20000 nM,-0.0255 ± 0.0078
same,level (log10),[3]; 60000 nM,-0.038 ± 0.042
CASM3C:PAI-I,level (log10),[1]; 6700 nM,-0.005 ± 0.0014
same,level (log10),[1]; 20000 nM,-0.005 ± 0.0028
same,level (log10),[2]; 6700 nM,0.009
same,level (log10),[2]; 20000 nM,0.004
same,level (log10),[2]; 60000 nM,0.0165 ± 0.0064
same,level (log10),[3]; 6700 nM,-0.0035 ± 0.011
same,level (log10),[3]; 20000 nM,0.003 ± 0.0071
same,level (log10),[3]; 60000 nM,0.0015 ± 0.0078
